We go through 6 compounds from ChEMBL document CHEMBL1201862, “PubChem BioAssay data set” (2004).

Activity calls are given as the source filed them.

One series has as its target Cytochrome P450 2C9 (Homo sapiens, UniProt P11712).
A further series concerns the target Cytochrome P450 2D6 (Homo sapiens, UniProt P10635).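 Note: CYP2D6 member of a cytochrome P450 panel assay.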
The target in series [1] is T1, Intestinal-type alkaline phosphatase (Homo sapiens, UniProt P09923). In words: human IAP inhibitors, dose response, biochemical, luminescent, uHTS hits, set 2 (AID 488793). In kind it is functional.
T1 sequence (P09923 whole entry): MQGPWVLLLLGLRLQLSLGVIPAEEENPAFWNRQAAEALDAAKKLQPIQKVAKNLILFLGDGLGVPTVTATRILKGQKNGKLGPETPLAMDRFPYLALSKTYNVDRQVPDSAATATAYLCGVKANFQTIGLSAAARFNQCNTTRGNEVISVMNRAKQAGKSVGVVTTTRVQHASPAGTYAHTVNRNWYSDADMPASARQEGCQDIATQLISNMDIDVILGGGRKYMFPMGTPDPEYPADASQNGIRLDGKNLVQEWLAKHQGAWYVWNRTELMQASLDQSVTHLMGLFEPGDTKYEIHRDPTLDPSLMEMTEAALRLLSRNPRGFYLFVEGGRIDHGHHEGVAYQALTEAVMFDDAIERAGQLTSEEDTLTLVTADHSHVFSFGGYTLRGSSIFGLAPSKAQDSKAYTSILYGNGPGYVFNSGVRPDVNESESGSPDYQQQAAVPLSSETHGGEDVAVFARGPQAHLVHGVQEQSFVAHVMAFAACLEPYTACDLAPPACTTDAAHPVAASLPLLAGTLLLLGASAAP
The target of another series is T2, Protein skinhead-1 (Caenorhabditis elegans, UniProt P34707).
T2 sequence (P34707 whole entry): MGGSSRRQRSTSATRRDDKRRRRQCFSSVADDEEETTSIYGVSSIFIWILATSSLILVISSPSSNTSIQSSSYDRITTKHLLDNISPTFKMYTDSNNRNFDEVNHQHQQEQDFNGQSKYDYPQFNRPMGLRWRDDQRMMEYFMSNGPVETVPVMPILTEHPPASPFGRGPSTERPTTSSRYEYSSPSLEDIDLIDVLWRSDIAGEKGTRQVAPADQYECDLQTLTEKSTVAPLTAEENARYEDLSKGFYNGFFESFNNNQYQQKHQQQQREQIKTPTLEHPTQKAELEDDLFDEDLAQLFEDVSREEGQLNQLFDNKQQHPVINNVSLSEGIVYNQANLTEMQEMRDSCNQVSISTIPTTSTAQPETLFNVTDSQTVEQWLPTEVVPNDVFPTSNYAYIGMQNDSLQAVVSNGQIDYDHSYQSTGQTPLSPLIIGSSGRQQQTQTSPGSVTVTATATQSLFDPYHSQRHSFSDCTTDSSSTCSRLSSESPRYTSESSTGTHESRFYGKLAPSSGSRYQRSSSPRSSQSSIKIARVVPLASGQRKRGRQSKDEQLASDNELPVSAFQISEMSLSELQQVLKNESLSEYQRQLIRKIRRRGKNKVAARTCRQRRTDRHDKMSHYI
In kind it is functional.

The target of series [2] is T3, Alkaline phosphatase, tissue-nonspecific isozyme (Homo sapiens, UniProt P05186).
T3 sequence (P05186 whole entry): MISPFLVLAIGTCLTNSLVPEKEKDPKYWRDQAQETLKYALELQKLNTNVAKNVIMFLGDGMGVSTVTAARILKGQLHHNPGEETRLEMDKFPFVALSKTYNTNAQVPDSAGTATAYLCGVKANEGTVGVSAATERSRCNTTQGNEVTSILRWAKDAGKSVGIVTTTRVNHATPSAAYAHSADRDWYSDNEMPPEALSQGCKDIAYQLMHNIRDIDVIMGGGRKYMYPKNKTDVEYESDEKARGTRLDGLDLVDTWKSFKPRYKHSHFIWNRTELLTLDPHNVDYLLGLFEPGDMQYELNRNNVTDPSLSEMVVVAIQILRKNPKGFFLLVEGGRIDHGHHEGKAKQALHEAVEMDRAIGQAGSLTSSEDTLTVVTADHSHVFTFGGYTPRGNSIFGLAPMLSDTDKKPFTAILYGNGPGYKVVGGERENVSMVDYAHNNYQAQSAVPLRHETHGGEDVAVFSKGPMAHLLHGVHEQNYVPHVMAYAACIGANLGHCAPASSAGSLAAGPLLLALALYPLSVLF
Put plainly: inhibition of tissue-nonspecific alkaline phosphatase – biochemical, dose response (AID 488882). In kind it is functional.

In a further series the target is Nonstructural protein 1 (Influenza A virus, UniProt Q194T2). The series is classed as functional, Influenza A virus (A/California/07/2009(H1N1)).
Series [3] addresses Intestinal-type alkaline phosphatase (Mus musculus, UniProt P24822). In words: PubChem AID 488874. The series is classed as functional.
The target of series [4] is T1, Intestinal-type alkaline phosphatase. Put plainly: Dose Response confirmation of uHTS hits from a small molecule inhibitors of human intestinal alkaline phosphatase via a luminescent assay. [Related pubchem assays (depositor defined):AID2544, AID2574]. The series is classed as functional.
A further series addresses T4, Protein RecA (Mycobacterium tuberculosis, UniProt P9WHJ3).
T4 sequence (P9WHJ3 whole entry): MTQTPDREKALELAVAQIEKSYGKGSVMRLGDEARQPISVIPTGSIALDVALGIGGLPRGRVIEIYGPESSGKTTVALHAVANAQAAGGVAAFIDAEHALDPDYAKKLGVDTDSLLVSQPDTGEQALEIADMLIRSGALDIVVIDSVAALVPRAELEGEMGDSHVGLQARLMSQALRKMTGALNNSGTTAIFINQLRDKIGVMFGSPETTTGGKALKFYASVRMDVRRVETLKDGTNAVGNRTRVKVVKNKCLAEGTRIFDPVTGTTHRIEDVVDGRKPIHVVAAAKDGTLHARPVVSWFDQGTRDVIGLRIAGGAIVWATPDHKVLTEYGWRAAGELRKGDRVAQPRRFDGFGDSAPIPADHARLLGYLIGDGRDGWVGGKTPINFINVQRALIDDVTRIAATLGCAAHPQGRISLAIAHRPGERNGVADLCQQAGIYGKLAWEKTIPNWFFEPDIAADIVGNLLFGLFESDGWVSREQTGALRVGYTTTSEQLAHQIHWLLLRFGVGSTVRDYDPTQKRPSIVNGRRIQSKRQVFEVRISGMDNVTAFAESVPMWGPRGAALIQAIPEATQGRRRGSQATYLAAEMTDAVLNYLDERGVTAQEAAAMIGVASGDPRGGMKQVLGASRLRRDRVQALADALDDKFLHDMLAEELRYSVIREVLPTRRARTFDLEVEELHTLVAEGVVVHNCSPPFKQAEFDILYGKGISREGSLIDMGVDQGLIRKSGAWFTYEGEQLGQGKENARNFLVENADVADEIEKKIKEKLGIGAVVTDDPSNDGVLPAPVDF
Put plainly: Fluorescence Cell-Free Homogeneous Dose Retest to Identify Inhibitors of RecA-Intein Splicing Activity. [Related pubchem assays (depositor defined):AID2097, AID2223, AID489010, AID492950]. The series is classed as functional.

Series [5] is described as follows: growth induction of Burl-1 ts yeast mutant, dose response, counter-screen for SUMOylation pathway inhibitor project, whole organism, S. cerevisiae, luminescence (AID 463199). The series is classed as functional.
Series [6] concerns the target T5, Dual specificity protein phosphatase 3 (Homo sapiens, UniProt P51452). In words: SAR VHR1 Fluorescent Assay for In Vitro dose response studies Set 2. [Related pubchem assays (depositor defined):AID1654, AID1661, AID1878]. In kind it is functional.
The target in series [7] is T6, Dual specificity protein phosphatase 6 (Rattus norvegicus, UniProt Q64346).
T6 sequence (Q64346 whole entry): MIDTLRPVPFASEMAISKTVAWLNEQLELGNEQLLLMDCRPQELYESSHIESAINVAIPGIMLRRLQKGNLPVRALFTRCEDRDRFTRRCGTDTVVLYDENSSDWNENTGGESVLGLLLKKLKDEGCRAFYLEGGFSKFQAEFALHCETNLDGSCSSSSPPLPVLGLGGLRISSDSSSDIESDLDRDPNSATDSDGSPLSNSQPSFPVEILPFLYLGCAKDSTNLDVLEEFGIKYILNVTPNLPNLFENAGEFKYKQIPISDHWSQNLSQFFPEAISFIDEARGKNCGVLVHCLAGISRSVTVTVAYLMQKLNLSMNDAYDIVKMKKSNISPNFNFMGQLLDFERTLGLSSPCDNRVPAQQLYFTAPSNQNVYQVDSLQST
In kind it is functional.

In series [8] the target is T7, Tyrosine-protein phosphatase non-receptor type 7 (Homo sapiens, UniProt P35236).
T7 sequence (P35236 whole entry): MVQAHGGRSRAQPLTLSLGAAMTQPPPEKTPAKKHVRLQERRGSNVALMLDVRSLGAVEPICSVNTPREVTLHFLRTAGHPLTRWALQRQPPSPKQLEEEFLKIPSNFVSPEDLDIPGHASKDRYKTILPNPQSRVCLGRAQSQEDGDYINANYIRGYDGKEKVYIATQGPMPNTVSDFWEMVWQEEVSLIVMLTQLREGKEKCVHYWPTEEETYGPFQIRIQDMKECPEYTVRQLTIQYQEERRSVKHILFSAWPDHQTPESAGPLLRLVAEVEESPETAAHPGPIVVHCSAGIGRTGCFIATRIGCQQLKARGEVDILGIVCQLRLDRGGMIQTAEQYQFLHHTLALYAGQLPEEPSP
In words: SAR analysis of chemical inhibitors of HePTP using a Fluorescent assay - Set 2. [Related pubchem assays (depositor defined):AID1059, AID1077, AID1661, AID2085, AID521]. In kind it is functional.

In series [9] the target is T5, Dual specificity protein phosphatase 3. In words: VHR1 phosphatase inhibitors, primary screen, biochemical, absorbance, uHTS (AID 1654).
Series [10] has as its target T7, Tyrosine-protein phosphatase non-receptor type 7. In words: redox-dependent HePTP inhibition, mechanism study, biochemical, fluorescence (AID 2068). In kind it is functional.
The target of series [11] is T5, Dual specificity protein phosphatase 3. Put plainly: VHR1 phosphatase inhibitors, biochemical (AID 1878).
For series [12] the target is unchanged. In words: SAR VHR1 Fluorescent Assay for In Vitro dose response studies. [Related pubchem assays (depositor defined):AID1654, AID1661, AID1878, AID1992, AID2004, AID2070, AID2085]. In kind it is functional.
The target in series [13] is T6, Dual specificity protein phosphatase 6. In words: SAR analysis of inhibitors of MKP-3 - Set 2. [Related pubchem assays (depositor defined):AID1055, AID1661, AID425, AID553, AID566]. The series is classed as functional.
Series [14] concerns the target T7, Tyrosine-protein phosphatase non-receptor type 7. Put plainly: HePTP (PTPN7) phosphatase inhibitor potency, SAR follow-up, biochemical, set 2 (AID 449736). In kind it is functional.
Series [15] has as its target T5, Dual specificity protein phosphatase 3. Put plainly: SAR VHR1 absorbance Assay for In Vitro dose response studies. [Related pubchem assays (depositor defined):AID1654, AID1661, AID1878, AID1992, AID2004].
For series [16], the target named is T6, Dual specificity protein phosphatase 6. In words: MKP-3 phosphatase inhibitors, primary screen, biochemical, rat enzyme, in vitro (AID 425).
Series [17] has as its target T8, Voltage-gated N-type calcium channel alpha-1B subunit/Amyloid beta A4 precursor protein-binding family A member 1 (Homo sapiens, UniProt Q00975+Q02410). Put plainly: disruptors of Mint-PDZ/N-type channel peptide interaction – biochemical, HTRF, SAR follow-up (AID 2489). The series is classed as functional.
Series [18] has as its target T8, Voltage-gated N-type calcium channel alpha-1B subunit/Amyloid beta A4 precursor protein-binding family A member 1. In words: disruptors of Mint-PDZ/N-type channel peptide interaction – biochemical, HTRF, set 2, SAR follow-up (AID 434980). The series is classed as functional.
For a further series, the target named is SUMO E1/E2 (Homo sapiens, UniProt P63279+Q9UBE0+Q9UBT2). In words: SAR analysis of SUMOylation using HTRF in an in-Vitro dose response assay. [Related pubchem assays (depositor defined):AID2006, AID2011, AID2018, AID2069, AID2658]. The series is classed as functional.
Sequence of SUMO E1/E2 (Q9UBE0 whole entry): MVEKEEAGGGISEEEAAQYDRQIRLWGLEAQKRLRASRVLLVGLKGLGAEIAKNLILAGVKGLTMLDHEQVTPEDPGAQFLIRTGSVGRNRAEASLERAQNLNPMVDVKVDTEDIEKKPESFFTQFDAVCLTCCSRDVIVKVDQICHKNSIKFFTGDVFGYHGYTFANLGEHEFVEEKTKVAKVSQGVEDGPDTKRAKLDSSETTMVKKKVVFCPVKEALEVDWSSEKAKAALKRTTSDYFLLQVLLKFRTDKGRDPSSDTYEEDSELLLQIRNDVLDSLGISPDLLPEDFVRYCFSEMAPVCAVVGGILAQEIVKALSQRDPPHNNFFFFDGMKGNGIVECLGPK
Sequence of SUMO E1/E2 (Q9UBT2 whole entry): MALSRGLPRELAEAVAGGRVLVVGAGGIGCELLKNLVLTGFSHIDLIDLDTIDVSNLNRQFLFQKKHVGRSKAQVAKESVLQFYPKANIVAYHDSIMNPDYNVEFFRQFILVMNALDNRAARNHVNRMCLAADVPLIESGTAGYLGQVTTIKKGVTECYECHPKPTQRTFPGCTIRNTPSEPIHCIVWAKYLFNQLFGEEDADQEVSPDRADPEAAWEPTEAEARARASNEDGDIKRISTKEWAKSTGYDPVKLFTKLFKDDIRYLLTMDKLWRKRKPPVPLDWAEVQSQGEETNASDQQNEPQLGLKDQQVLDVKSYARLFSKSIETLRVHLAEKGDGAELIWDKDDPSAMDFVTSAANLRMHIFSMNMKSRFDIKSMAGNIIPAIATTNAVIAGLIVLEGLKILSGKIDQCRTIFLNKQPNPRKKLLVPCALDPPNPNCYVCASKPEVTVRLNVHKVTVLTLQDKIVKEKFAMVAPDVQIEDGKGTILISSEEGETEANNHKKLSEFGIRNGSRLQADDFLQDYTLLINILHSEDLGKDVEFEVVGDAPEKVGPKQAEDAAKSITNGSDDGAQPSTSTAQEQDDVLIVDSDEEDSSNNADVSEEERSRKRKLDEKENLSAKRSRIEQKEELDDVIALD
Sequence of SUMO E1/E2 (P63279 whole entry): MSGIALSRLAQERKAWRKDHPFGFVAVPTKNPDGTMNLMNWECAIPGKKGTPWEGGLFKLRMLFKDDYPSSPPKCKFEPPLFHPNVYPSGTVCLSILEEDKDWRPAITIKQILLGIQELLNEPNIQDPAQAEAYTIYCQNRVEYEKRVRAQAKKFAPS
The target in series [19] is Sphingosine 1-phosphate receptor 3 (Homo sapiens, UniProt Q99500). In words: Late stage counterscreen assay for S1P4 antagonists: Fluorescence dose response cell-based screening assay for antagonists of the Sphingosine 1-Phosphate Receptor 3 (S1P3). [Related pubchem assays (depositor defined):AID1510, AID1524, AID1692, AID1853, AID2332, AID489009, AID489017]. The series is classed as functional.

Series [20] concerns the target Sphingosine 1-phosphate receptor 1 (Homo sapiens, UniProt P21453). In words: Late stage counterscreen assay for S1P4 antagonists: Fluorescence dose response cell-based screening assay for antagonists of the Sphingosine 1-Phosphate Receptor 1 (S1P1). [Related pubchem assays (depositor defined):AID1510, AID1524, AID1692, AID1853, AID2332, AID489009, AID489017]. The series is classed as functional.

The target in series [21] is Sphingosine 1-phosphate receptor 2 (Homo sapiens, UniProt O95136). In words: Late stage counterscreen assay for S1P4 antagonists: Fluorescence dose response cell-based screening assay for antagonists of the Sphingosine 1-Phosphate Receptor 2 (S1P2). [Related pubchem assays (depositor defined):AID1510, AID1524, AID1692, AID1853, AID2332, AID489009, AID489017]. The series is classed as functional.

Series [22] deals with Sphingosine 1-phosphate receptor 5 (Homo sapiens, UniProt Q9H228). In words: Late stage counterscreen assay for S1P4 antagonists: Fluorescence dose response cell-based screening assay for antagonists of the Sphingosine 1-Phosphate Receptor 5 (S1P5). [Related pubchem assays (depositor defined):AID1510, AID1524, AID1692, AID1853, AID2332, AID489009, AID489017]. In kind it is functional.

T5 sequence (P51452 whole entry): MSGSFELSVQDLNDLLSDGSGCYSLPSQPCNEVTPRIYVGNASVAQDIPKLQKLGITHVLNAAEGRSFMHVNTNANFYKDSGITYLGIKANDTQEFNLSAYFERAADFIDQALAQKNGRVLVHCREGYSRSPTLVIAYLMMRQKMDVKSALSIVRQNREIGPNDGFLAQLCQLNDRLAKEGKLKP
T8 sequence (Q00975 whole entry): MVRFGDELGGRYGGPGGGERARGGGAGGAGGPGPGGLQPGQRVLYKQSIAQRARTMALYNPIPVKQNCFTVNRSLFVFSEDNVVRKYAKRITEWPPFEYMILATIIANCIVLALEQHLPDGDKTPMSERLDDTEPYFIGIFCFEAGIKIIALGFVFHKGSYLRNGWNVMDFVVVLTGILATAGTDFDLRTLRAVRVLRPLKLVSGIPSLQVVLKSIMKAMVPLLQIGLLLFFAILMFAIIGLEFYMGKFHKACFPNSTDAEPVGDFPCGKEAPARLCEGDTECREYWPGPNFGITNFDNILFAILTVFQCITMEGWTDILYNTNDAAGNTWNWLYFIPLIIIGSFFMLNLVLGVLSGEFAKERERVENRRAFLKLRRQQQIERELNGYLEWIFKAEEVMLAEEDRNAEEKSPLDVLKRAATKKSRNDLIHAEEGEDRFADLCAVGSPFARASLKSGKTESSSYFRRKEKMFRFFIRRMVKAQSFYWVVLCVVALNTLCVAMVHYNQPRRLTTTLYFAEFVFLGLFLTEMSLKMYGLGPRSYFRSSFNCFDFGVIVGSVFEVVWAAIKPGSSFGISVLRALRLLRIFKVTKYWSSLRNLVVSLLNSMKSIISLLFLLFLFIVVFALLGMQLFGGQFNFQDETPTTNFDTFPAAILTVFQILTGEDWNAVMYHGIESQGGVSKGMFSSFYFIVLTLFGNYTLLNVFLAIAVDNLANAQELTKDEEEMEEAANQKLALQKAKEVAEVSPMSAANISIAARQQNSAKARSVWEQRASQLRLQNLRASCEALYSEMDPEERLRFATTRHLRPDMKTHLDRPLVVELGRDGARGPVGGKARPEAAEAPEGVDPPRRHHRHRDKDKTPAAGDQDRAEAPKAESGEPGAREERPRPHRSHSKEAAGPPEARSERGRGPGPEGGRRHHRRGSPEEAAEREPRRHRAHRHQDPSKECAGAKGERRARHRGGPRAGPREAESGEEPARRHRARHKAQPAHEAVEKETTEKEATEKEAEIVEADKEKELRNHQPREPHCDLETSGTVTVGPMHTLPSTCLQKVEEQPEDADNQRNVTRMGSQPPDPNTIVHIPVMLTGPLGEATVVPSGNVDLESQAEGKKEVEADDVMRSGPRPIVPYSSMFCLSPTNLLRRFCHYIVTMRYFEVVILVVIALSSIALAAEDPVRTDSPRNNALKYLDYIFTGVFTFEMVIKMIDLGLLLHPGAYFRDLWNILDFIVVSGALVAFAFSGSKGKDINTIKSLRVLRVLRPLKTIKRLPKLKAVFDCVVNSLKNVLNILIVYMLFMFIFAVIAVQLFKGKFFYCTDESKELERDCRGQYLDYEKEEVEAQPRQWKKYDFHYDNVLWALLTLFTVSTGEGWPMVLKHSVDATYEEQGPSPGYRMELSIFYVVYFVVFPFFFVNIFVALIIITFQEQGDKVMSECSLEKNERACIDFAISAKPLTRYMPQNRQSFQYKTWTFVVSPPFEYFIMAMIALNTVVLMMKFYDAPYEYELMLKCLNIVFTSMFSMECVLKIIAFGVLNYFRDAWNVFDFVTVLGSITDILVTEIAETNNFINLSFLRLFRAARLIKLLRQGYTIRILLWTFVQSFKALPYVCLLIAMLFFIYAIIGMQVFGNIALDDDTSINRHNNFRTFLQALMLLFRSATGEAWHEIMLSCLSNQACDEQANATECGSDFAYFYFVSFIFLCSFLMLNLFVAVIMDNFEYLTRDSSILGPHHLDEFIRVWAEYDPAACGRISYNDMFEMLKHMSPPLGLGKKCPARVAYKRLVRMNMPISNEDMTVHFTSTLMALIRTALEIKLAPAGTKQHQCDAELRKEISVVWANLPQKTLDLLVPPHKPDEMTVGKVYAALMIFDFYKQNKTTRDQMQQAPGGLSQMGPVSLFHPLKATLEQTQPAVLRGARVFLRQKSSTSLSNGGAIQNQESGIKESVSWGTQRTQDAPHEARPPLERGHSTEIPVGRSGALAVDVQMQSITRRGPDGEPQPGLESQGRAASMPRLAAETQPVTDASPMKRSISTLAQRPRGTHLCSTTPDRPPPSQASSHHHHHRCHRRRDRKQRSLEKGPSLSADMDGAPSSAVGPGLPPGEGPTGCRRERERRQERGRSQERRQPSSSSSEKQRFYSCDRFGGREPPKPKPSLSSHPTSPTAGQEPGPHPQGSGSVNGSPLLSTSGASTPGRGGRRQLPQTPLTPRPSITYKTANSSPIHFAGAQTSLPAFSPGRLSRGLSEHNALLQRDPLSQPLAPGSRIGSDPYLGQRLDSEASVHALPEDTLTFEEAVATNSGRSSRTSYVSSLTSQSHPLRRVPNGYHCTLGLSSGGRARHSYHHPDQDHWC
T8 sequence (Q02410 whole entry): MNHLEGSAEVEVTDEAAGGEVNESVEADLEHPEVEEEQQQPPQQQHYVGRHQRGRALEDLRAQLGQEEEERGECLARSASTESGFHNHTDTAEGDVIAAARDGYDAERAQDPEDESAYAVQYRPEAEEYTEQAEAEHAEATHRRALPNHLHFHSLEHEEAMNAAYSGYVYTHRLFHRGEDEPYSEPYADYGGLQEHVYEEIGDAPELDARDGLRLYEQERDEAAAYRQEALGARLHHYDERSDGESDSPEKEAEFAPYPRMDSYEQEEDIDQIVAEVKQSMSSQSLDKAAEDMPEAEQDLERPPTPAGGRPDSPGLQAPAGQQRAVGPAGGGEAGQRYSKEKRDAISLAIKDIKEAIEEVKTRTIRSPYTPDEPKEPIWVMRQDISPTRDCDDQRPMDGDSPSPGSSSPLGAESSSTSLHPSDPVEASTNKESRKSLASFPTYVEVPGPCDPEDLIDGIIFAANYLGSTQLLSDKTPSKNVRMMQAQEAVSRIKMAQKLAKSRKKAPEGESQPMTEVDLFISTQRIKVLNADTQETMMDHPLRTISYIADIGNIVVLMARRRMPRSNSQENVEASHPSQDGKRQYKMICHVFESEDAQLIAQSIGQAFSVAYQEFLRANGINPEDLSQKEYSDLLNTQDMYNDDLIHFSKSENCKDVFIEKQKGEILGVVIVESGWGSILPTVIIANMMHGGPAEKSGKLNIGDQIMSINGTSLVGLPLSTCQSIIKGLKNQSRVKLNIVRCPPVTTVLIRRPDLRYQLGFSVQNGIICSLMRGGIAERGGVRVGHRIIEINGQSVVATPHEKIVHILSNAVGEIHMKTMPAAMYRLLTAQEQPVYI

`Cc1nn(-c2ccccc2)c(Cl)c1/C=N/NC(=O)c1ccco1`: the results for the AC50 on Cytochrome P450 2C9 and at Cytochrome P450 2D6 were 22.4 µM (inconclusive) and “inconclusive”, respectively.

`CC1=NN(Cc2ccccc2)C(=O)/C1=C\c1ccc(N(C)C)cc1`: the IC50 was 39.4 µM (active) in series [1]; > 100 µM (inactive) on Protein skinhead-1; 46.7 µM (active) in series [2]; 32.3 µM (active) on Nonstructural protein 1; 35.1 µM (active) in series [3]; 16.8 µM (inactive) in series [4]. For the same compound, the EC50 at Protein RecA was > 380 µM (inactive).

Take `O=C1CC(c2cccc(Br)c2)C2=C(COC2=O)N1` (stereo not drawn): the AC50 in series [5] was 85 µM (active).

Take `NS(=O)(=O)c1ccc(NC(=S)NC2CCCCC2)cc1`: the IC50 in series [6] is 0.143 µM (active); in series [7], > 99 µM (inactive); in series [8], 1.27 µM (active); in series [9], 2.15 µM (active); in series [10], 0.025 µM (active); in series [11] it was 3.49 µM (active). Besides, the IC50 was > 99 µM (inactive) in [12]; > 100 µM (inactive) in [13]; > 100 µM (inactive) in series [14]; 0.704 µM (active) in [15]; > 158 µM (not active) in [16].

On to `Cc1ccc(CNC(=O)COC(=O)c2cc(-c3ccco3)nc3ccccc23)cc1`, for which the IC50 in series [17] was 18.1 µM (active); in series [18] it was 12.1 µM (active); at SUMO E1/E2, 6.5 µM (active).

As to `Cc1cscc1-c1ccc(C(=O)Nc2c(C)cccc2C)o1`, the IC50 in series [19], in series [20], in [21] and in [22] was > 25 µM (inactive) throughout.
